For data set [1], the system named is SNL-induced mechanical hyperalgesia. In words: SNL-induced mechanical hyperalgesia, paw withdrawal threshold. The settings on record: SNL rats, 60 mg/kg/d, i.g., 11 d. Type of data set: in vivo, rat. The method, then:
(§1) Neuropathic pain was induced by segmental spinal nerve ligation (SNL). Animals were anesthetized with isoflurane. After the loss of righting reflex, the animal was fixed in the prone position. The SNL model was prepared as described previously: a median skin incision with about 3-5 cm length in L4-S2 level of the mouse back was made, the muscles next to the vertebrae till the sixth lumbar protruding were separated, the L5/L6 joint protruding on the right side was exposed and excised, and L6 processus transversus was partially split so that the L4-L6 spinal nerves on the right side were exposed. L5 nerve was gently isolated and tightly ligated with 5-0 silk thread. The wound was closed with 4-0 silk thread suture and covered with iodine solution. After nerve ligation, animals with signs of paw clonus or autotomy were excluded from further experiments.
Osmotic minipumps (models 1004 for mouse and 2ML4 for rat; Alzet) and intrathecal cannulas (0.61 mm outer diameter and 0.28 mm inner diameter for mouse, 0.99 mm outer diameter and 0.58 mm inner diameter for rat) were filled with a solution of PBS. Cannulas were inserted into the subarachnoid space through the space between the L5 and L6 vertebrae and the tip of the catheter was implanted at the L5 spinal segmental level.
For rats, the threshold for 50% paw withdrawal (50% PWT) response to mechanical stimulus was assessed through a dynamic plantar apparatus (Ugo Basile, Italy). The 50% PWT refers to that the probability of paw withdrawal response to repeated mechanical stimulus is 50%. Rats were placed individually in a plastic cage (17 × 15 × 15 cm) with a wire mesh bottom which allowed full access to the paws. Behavioral accommodation was allowed for 15-20 min until cage exploration and major grooming activities ceased. A maximal cut-off of 50g/50s was set to prevent tissue damage. To record the PWT in response to mechanical stimulus, each rat was measured five times with a 5-min interval, and the mean value was recorded after excluding maximal and minimum values. The experimental procedures were performed in a double-blind manner.

In another data set the target is T1, α2β3γ2 GABAARs (Homo sapiens, UniProt P18507+P28472+P47869).
T1 construct: Shanghai Genechem Co.,Ltd (γ2 plasmid); host or cells: HEK293
In words: Potentiation of GABA-evoked currents, whole-cell patch-clamp in HEK293 cells transiently expressing recombinant GABAARs. It counts as cell-based. The method, then:
(§2) The affinities of drugs for α1, α2, α3 and α5 subunits were studied in the HEK293 cells (from FuHeng Biology, Shanghai, China) transiently expressing recombinant GABAARs (α1β2γ2, α2β3γ2, α3β3γ2 and α5β2γ2) as described previously. Briefly, the HEK293 cells were cultured in MEM medium supplemented with 10% FBS (fetal bovine serum, Gibico), 1% L-glutamine (Gibco) and 1% mycillin (Gibco). Before transfection, the cells were subcultured onto a 3.5cm dish at the ratio of 1:2. Then, the plasmids of α1/α2/α3/α5 (Origene), β2/β3 (Origene) and γ2 (Shanghai Genechem Co.,Ltd ) (5μg total DNA, ratio 1:1:2) were transfected using Fugene®HD transfection reagent (Promega). The γ2 subunit contained GFP from IRES (internal ribosomal entry site) and was used as a marker of the successful transfection. Cells were used for electrophysiology recording 18-36 hours after transfection.
(§3) Electrophysiology recordings from HEK293 cells were performed as described previously. Briefly, whole-cell patch-clamp recordings of GABA-evoked currents were made at 30 °C with the holding potential of -60 mV. The internal solution (solution in recording electrodes) contained (in mM): 120 CsCl, 10 EGTA, 10 HEPES, 4 MgCl2, 0.5 GTP, 2 ATP and pH was adjusted to 7.4 with CsOH and the external solution contained (in mM): 150 NaCl, 10 KCl, 2 CaCl2, 1 MgCl, 10 HEPES, 10 Glucose and pH was adjusted to 7.4 with NaOH. ACSF was bubbled continuously with carbogen (95%O2 and 5%CO2). For the recording of GABA-evoked currents, the slides were transferred to a recording chamber, which was perfused with ACSF at a rate of 4 ml/min. The cells were viewed under upright microscopy (Olympus), and GFP-positive cells were selected to record the currents. The interval time between each different dose of GABA was controlled, 3 to 5 minutes to avoid the desensitization of GABAARs.
For orientation: The patch-clamp technique gives a direct electrical read-out from membranes.

The test system of another data set is neuropathic pain. The arrangement: method as in PMID 32632774. The settings on record: treatment of neuropathic pain, chronic use; cited from earlier work.
A further data set deals with spatial memory. The data set can be described thus: Morris water maze task. The following applies: rats; ZL006-05 90 mg/kg/d, i.g.; MK801 0.25 mg/kg/d, i.v.; 6 days. Type of data set: in vivo. Here is the method: The Morris water maze task was used to exam spatial cognitive performance of rats. A circular swimming pool (Jiliang Neuroscience Inc.) measuring 180 cm in diameter and 48 cm in height was filled with water to a depth of 26 cm at 24 ± 2 °C. Four starting points around the edge of the pool were designated as N, E, S, and W, which divided the pool into four quadrants. A platform, 10 cm in diameter, was located in a constant position in the middle of one quadrant. To render it invisible to the rats, platform was submerged 2.0 cm below the surface of the water. The task for the rats was to escape from the water by locating the hidden platform. Two days before training, the animals were habituated to swimming for 60 s in the pool without a platform. In training session, rats were trained to escape from the water by locating the platform which was above the water with a red flag on it. Then, one block of four trails was given for 6 consecutive days, and on each day, two groups of rats were administrated with MK801 (0.25 mg/kg, i.v.) or vehicle (6 mL/kg, i.v.) 30 minutes before the first trail. Meanwhile, another two groups of rats were treated with ZL006-05 (90 mg/kg, i.g.) or vehicle (6 mL/kg, i.g.) 1 hour before the first trail. […] During retention, the number of crossings of the platform location and the time spent in the target quadrant were measured.

Data set [2] concerns SNL-induced mechanical hyperalgesia. The data set can be described thus: SNL-induced mechanical hyperalgesia, von Frey. The following applies: SNL mice, ZL006-05 60 mg/kg/d, i.g., × 28 d; pregabalin 30 mg/kg/d. It counts as in vivo, mice. Here is the method: as §1
For mice, the threshold for 50% PWT response to mechanical stimulus was quantified by assessing the paw withdrawal threshold using von Frey filaments (Touch-Test TM Sensory Evaluator, North coast Medical, Inc.). Mice were placed individually in a plastic cage (4.5 × 5 × 11 cm) with a wire mesh bottom which allowed full access to the paws. Behavioral accommodation was allowed for 20-30 min until cage exploration and major grooming activities ceased. Mechanical threshold was measured by applying a von Frey filament to the ventral surface of the right hind paw until a positive sign of pain behavior was elicited. The paradigm for assessing the threshold was as follows. Von Frey filaments with logarithmically incremental stiffness (0.02-2 g) were applied serially to the paw by the up-down method. The filaments were presented, in ascending order of strength, perpendicular to the plantar surface with sufficient force to causes light bending against the paw and held for 4s. A positive response was noted if the paw was sharply withdrawn. Flinching immediately upon removal of the hair was also considered a positive response. The 2-g filament was selected as the upper limit cut-off for testing. If there was no response at 2-g filament, animals were assigned this cut-off value. The pattern of positive and negative withdrawal responses was converted to 50% threshold according to the formula: 50% PWT = 10 log (X) + κδ. X = value (in log unit) of the final von Frey hair used; κ is correction factors based on the pattern of responses from the calibration table; δ = mean difference in log units between stimuli (here, 0.224).

In another data set the target is T2, PSD-95-nNOS complex (Rattus norvegicus, UniProt P29476).
T2 construct: dorsal spinal cord tissues (L4 and L5) were lysed in 400 μl RIPA; from tissue; host or cells: rat dorsal spinal cord (L4 and L5), SNL model
In words: Co-IP of PSD-95-nNOS complex levels in the spinal dorsal horn after SNL. Type of data set: in vivo. The settings on record: SNL rats, 60 mg/kg/d, i.g., 3 d.

The target of a further data set is T3, α3β3γ2 GABAARs (Homo sapiens, UniProt P18507+P28472+P34903).
T3 construct: Shanghai Genechem Co.,Ltd (γ2 plasmid); host or cells: HEK293
In words: Potentiation of GABA-evoked currents, whole-cell patch-clamp in HEK293 cells transiently expressing recombinant GABAARs. It counts as cell-based. The following applies: α3β3γ2, n = 8. Here is the method:
as §2, §3

Another data set addresses T4, α1β2γ2 GABAARs (Homo sapiens, UniProt P14867+P18507+P47870).
T4 construct: Shanghai Genechem Co.,Ltd (γ2 plasmid); host or cells: HEK293
The description is as above. Type of data set: cell-based. The following applies: α1β2γ2, n = 8. Here is the method:
as §2, §3

For the next data set, the system named is motor coordination. In words: Rotarod test, motor coordination. The settings on record: rats, 30 min after injection, ZL006-05 60 mg/kg, i.v., diazepam 0.5 mg/kg. Type of data set: in vivo. Background: The rotarod test checks motor coordination on a turning rod.
The test system of another data set is locomotor activity. The data set can be described thus: Open field test, locomotor activity. Type of data set: in vivo. The following applies: mice, 1 h after injection, ZL006-05 60 mg/kg, i.v., diazepam 0.5 mg/kg. The method, then: The locomotor activity was assessed by the open field test as described previously. The apparatus consisted of a large area composed of plastic, surrounded by walls that were 100 cm high. The floor was 50 × 50 cm for mice; the overall illumination was 25 lux. Each animal was gently placed in the center of the open field, and its behavior was videotaped. The distance the animals travelled was measured in a 5-min session using ANY-maze (Stoelting Co., IL, USA). After each trial, the plate was cleaned with 70% EtOH. No stressor was applied to the animals for at least 12 h before the test.

The term EC50 denotes the concentration giving half of the maximal effect. The Emax is the size of the effect at its maximum, as opposed to the concentration needed.

Molecules are shown by their SMILES.

T1 sequence (P47869 29-451): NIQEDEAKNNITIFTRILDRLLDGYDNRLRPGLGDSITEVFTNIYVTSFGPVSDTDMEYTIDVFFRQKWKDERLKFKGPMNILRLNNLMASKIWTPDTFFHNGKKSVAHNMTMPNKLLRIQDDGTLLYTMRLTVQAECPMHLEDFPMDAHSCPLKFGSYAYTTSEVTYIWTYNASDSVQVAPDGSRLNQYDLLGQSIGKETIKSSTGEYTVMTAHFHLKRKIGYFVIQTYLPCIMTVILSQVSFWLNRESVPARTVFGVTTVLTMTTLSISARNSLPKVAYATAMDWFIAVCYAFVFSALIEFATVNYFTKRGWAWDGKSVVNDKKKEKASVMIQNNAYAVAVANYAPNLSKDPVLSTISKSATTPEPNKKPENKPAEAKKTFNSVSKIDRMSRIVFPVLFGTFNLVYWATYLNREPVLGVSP
T1 sequence (P28472 26-473): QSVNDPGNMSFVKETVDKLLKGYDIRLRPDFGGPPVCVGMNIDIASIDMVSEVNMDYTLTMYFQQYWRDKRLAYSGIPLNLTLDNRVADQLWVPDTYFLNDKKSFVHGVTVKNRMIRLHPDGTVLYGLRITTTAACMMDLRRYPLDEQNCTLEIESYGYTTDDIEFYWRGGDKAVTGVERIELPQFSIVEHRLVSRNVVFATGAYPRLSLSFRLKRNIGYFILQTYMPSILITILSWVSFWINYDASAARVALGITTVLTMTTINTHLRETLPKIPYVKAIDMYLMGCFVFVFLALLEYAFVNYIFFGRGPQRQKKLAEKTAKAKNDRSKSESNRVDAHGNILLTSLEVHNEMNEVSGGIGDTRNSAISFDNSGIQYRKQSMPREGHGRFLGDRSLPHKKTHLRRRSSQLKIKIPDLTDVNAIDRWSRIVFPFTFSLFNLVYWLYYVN
T1 sequence (P18507 40-475): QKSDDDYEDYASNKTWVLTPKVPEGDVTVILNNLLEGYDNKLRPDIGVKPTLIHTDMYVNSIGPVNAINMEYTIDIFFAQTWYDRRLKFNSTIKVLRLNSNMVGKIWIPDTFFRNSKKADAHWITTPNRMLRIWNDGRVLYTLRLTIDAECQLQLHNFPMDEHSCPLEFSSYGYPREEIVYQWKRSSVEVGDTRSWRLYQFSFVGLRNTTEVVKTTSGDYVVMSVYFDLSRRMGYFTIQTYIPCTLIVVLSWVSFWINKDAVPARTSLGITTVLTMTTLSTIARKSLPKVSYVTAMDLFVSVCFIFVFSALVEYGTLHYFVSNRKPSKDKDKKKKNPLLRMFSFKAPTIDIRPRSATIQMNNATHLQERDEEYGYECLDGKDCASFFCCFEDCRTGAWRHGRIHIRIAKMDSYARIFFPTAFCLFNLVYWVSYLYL
T2 sequence (P29476 whole entry, one chain of several): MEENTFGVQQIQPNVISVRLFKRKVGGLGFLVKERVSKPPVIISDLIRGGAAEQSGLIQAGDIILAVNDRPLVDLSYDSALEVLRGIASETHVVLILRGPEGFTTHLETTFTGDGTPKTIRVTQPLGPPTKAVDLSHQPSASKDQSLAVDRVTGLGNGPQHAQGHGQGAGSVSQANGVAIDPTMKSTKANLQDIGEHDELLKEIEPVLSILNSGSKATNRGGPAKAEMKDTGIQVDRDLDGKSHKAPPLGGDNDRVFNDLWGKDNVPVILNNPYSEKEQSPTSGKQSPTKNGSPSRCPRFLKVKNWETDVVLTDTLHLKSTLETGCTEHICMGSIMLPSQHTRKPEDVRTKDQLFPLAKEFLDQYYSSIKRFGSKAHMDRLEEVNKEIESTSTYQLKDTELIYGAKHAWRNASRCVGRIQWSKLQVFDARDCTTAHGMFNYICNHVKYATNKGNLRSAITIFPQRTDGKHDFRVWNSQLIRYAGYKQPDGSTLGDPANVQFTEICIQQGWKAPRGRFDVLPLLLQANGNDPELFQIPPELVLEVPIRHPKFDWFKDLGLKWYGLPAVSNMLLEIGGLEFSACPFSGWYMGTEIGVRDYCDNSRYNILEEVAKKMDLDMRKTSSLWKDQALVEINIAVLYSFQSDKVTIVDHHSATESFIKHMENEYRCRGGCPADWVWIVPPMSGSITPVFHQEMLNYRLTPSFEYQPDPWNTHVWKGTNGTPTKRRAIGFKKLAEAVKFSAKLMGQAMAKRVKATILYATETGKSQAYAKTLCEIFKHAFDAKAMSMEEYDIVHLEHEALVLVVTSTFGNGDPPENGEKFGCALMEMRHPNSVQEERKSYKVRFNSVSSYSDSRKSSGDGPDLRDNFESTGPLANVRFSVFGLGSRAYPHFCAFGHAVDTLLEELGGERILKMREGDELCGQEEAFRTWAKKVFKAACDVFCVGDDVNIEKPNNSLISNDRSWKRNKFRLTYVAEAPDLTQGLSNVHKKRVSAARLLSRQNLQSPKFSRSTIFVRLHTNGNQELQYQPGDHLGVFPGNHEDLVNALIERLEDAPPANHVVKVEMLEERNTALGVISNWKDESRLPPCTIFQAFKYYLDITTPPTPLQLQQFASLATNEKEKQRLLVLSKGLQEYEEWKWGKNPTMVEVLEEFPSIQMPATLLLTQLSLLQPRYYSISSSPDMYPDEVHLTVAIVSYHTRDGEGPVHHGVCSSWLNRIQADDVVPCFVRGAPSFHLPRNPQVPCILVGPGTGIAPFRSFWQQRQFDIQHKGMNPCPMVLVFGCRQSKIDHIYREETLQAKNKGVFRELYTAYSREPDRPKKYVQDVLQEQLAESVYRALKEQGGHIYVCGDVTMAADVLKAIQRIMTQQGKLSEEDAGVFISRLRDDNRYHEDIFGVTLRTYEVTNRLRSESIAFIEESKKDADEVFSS
T3 sequence (P34903 29-492): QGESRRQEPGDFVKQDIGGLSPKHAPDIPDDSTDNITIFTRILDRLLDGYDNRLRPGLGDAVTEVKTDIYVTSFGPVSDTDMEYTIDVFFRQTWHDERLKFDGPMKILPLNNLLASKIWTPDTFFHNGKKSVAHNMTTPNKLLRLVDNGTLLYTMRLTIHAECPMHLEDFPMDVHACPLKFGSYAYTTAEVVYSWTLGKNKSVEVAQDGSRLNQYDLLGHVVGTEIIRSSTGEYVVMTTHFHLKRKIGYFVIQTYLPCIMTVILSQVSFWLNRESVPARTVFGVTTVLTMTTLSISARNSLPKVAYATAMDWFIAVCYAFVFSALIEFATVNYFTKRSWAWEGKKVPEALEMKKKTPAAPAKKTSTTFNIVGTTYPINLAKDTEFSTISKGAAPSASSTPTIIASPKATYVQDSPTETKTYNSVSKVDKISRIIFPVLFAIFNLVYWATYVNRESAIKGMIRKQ
T3 sequence (P28472 26-473): as the sequence (P28472 26-473) above
T3 sequence (P18507 40-475): as the sequence (P18507 40-475) above
T4 sequence (P14867 28-456): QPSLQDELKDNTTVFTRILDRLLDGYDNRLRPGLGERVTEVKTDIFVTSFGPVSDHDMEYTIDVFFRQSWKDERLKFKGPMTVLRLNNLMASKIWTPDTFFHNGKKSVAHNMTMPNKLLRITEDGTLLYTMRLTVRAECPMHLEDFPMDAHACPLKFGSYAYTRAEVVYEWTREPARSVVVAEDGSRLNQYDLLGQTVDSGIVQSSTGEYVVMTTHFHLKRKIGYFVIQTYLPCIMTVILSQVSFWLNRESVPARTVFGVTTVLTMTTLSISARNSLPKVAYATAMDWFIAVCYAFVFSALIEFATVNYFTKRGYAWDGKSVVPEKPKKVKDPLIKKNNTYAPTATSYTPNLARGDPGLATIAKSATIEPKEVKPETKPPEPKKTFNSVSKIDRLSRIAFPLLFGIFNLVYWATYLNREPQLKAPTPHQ
T4 sequence (P47870 25-512 limits assumed): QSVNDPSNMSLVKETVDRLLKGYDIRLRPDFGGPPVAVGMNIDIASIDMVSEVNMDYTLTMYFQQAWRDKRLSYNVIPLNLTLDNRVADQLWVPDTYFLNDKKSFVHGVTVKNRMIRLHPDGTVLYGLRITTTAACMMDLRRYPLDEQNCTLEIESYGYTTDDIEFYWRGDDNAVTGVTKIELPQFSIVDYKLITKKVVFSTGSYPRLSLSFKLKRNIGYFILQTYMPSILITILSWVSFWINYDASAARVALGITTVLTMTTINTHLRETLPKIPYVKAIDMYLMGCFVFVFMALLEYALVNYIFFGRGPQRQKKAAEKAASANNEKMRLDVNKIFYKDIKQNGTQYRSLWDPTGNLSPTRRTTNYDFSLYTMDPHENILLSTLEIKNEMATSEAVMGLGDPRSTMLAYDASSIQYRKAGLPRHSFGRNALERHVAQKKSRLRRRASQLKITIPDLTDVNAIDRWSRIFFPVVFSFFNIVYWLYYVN
T4 sequence (P18507 40-475): as the sequence (P18507 40-475) above

Take `O=C(OC1CCCCC1)c1ccc(NCc2cc(Cl)cc(Cl)c2O)cc1O` [ZL006-05A]: the “Analgesic tolerance, mechanical hyperalgesia” value in data set [1] is recorded as “caused substantial analgesic tolerance”. Also, the “Effect on α2-containing GABAAR (in words)” value at α2β3γ2 GABAARs (α2β3γ2) is “without ability to target α2-containing GABAAR”.

As for `C[C@]12N[C@H](Cc3ccccc31)c1ccccc12` [MK801], in the data set on neuropathic pain, the “Analgesic tolerance when used chronically” value is on record as “cause obvious analgesic tolerance”. Also, the “Spatial memory in the Morris water maze task” value in the data set with spatial memory is “caused significantly impaired spatial memory”.

For `CC(C)C[C@H](CN)CC(=O)O` [pregabalin], in data set [2], the “Analgesic tolerance, mechanical hyperalgesia, 28 days treatment” value was “caused a severe analgesic tolerance”.

As to `CC1(C)C2CCC1(C)C(OC(=O)c1ccc(NCc3ccccc3O)cc1O)C2` (centres unmarked) [ZL006-05B], the “Analgesic tolerance, mechanical hyperalgesia” value in [1] was “caused substantial analgesic tolerance”. Further, on PSD-95-nNOS complex, the “PSD-95-nNOS complex level in the SDH” value is on record as “without ability to target PSD-95-nNOS”. For the same compound, at α2β3γ2 GABAARs (α2β3γ2, n = 8), the EC50 is 2.834 ± 0.0033 nM and the Emax stood at 104 ± 21.9%.

For the compound `CN1C(=O)CN=C(c2ccccc2)c2cc(Cl)ccc21` [diazepam], the Emax at α3β3γ2 GABAARs was 113 ± 8.58%; on α1β2γ2 GABAARs it was 109 ± 18.5%; at α2β3γ2 GABAARs (α2β3γ2, n = 8), 118 ± 16.4%. In addition, the “Motor coordination, time spent on the accelerating rotarod” value with motor coordination is “shortened the time for rats to fall off an accelerating rotarod significantly”. The “Locomotor activity, distance travelled during 5 min” value in the data set on locomotor activity is listed as “reduced the locomotor activity of mice in the open-field test”.
